Assay results published in PubChem BioAssay AID248 (DTP/NCI, 2004).
Several values for one entry are separate records, joined by “and”; a condition that tells them apart may be missing. Equal values may be shown once. Toxic doses and inconclusive results are not listed.

System: L1210 leukemia ip in BDF1 mice, survival T/C
Test: NCI In Vivo Anticancer Drug Screen. Data for tumor model L1210 Leukemia (intraperitoneal) in B6D2F1 (BDF1) mice
Conditions: endpoint: mean survival time, higher = longer survival
Outline: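 Transplantable tumor model; survival measured in treated vs vehicle control mice. Value = treated/control.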

[1] = dose: 100.0 mg/kg/injection, schedule: Q04DX002 (ip), vehicle: Klucel (hydroxypropylcellulose) (HPC)
[2] = dose: 200.0 mg/kg/injection, schedule: Q04DX002 (ip), vehicle: Klucel (hydroxypropylcellulose) (HPC)
[3] = dose: 400.0 mg/kg/injection, schedule: Q04DX002 (ip), vehicle: Klucel (hydroxypropylcellulose) (HPC)
[4] = dose: 100.0 mg/kg/injection, schedule: Q04DX003 (ip), vehicle: Klucel (hydroxypropylcellulose) (HPC)
[5] = dose: 200.0 mg/kg/injection, schedule: Q04DX003 (ip), vehicle: Klucel (hydroxypropylcellulose) (HPC)
[6] = dose: 400.0 mg/kg/injection, schedule: Q04DX003 (ip), vehicle: Klucel (hydroxypropylcellulose) (HPC)
[7] = dose: 100.0 mg/kg/injection, schedule: Q04DX002 (ip), vehicle: saline with Tween-80
[8] = dose: 400.0 mg/kg/injection, schedule: Q04DX002 (ip), vehicle: saline with Tween-80

CC(=O)CC(=O)C(F)(F)F.[O]=[U]=[O]
T/C (dose: 0.37 mg/kg/injection, schedule: Q01DX009 (ip), vehicle: gum acacia): 99 % of control | T/C (dose: 0.75 mg/kg/injection, schedule: Q01DX009 (ip), vehicle: gum acacia): 101 % of control | T/C (dose: 1.5 mg/kg/injection, schedule: Q01DX009 (ip), vehicle: gum acacia): 101 % of control | T/C (dose: 6.25 mg/kg/injection, schedule: Q01DX005 (ip), vehicle: gum acacia): 99 % of control | T/C (dose: 6.25 mg/kg/injection, schedule: Q01DX009 (ip), vehicle: gum acacia): 98 % of control | T/C (dose: 12.5 mg/kg/injection, schedule: Q01DX005 (ip), vehicle: gum acacia): 86 % of control | T/C (dose: 12.5 mg/kg/injection, schedule: Q04DX002 (ip), vehicle: gum acacia): 104 % of control | T/C (dose: 25.0 mg/kg/injection, schedule: Q04DX002 (ip), vehicle: gum acacia): 87 % of control

COc1ccc(C(=O)Nc2cccc3ccccc23)cc1
T/C (dose: 100.0 mg/kg/injection, schedule: Q01DX009 (ip), vehicle: carboxymethylcellulose (CMC)): 95 % of control | T/C [1]: 108 % of control | T/C (dose: 100.0 mg/kg/injection, schedule: Q04DX002 (ip), vehicle: carboxymethylcellulose (CMC)): 93 % of control and 97 % of control | T/C (dose: 100.0 mg/kg/injection, schedule: Q04DX003 (ip), vehicle: carboxymethylcellulose (CMC)): 103 % of control | T/C (dose: 200.0 mg/kg/injection, schedule: Q01DX009 (ip), vehicle: carboxymethylcellulose (CMC)): 98 % of control and 90 % of control | T/C [2]: 102 % of control | T/C (dose: 200.0 mg/kg/injection, schedule: Q04DX002 (ip), vehicle: carboxymethylcellulose (CMC)): 95 % of control and 103 % of control | T/C (dose: 200.0 mg/kg/injection, schedule: Q04DX003 (ip), vehicle: carboxymethylcellulose (CMC)): 103 % of control | T/C (dose: 400.0 mg/kg/injection, schedule: Q01DX009 (ip), vehicle: carboxymethylcellulose (CMC)): 93 % of control and 87 % of control | T/C [3]: 112 % of control | T/C (dose: 400.0 mg/kg/injection, schedule: Q04DX002 (ip), vehicle: carboxymethylcellulose (CMC)): 100 % of control and 101 % of control | T/C (dose: 400.0 mg/kg/injection, schedule: Q04DX003 (ip), vehicle: carboxymethylcellulose (CMC)): 97 % of control

COC(=O)C(CCSC)NC(=O)CNC(=O)OCc1ccccc1 (centres undefined)
T/C [4]: 99 % of control | T/C [5]: 97 % of control | T/C [6]: 92 % of control

Cc1nc(Br)c2cnccn12
T/C (dose: 12.5 mg/kg/injection, schedule: Q01DX009 (ip), vehicle: saline): 106 % of control | T/C (dose: 12.5 mg/kg/injection, schedule: Q04DX003 (ip), vehicle: saline): 98 % of control | T/C (dose: 25.0 mg/kg/injection, schedule: Q01DX009 (ip), vehicle: saline): 103 % of control | T/C (dose: 25.0 mg/kg/injection, schedule: Q04DX003 (ip), vehicle: saline): 97 % of control | T/C (dose: 50.0 mg/kg/injection, schedule: Q04DX003 (ip), vehicle: saline): 97 % of control

O=[N+]([O-])C1CCC2CCC3CCCC1C32 (centres undefined)
T/C (dose: 25.0 mg/kg/injection, schedule: Q04DX002 (ip), vehicle: saline with Tween-80): 97 % of control | T/C (dose: 50.0 mg/kg/injection, schedule: Q04DX002 (ip), vehicle: saline with Tween-80): 91 % of control | T/C [7]: 101 % of control and 102 % of control | T/C [8]: 93 % of control

CCOC(=O)CNC(=O)C=[N+]=[N-]
T/C (dose: 350.0 mg/kg/injection, schedule: Q01DX Z (ip), vehicle: water): 116 % of control | T/C (dose: 500.0 mg/kg/injection, schedule: Q01DX Z (ip), vehicle: water): 91 % of control

NNCCC(=O)O
T/C (dose: 100.0 mg/kg/injection, schedule: Q01DX001 (ip), vehicle: saline): 107 % of control | T/C (dose: 200.0 mg/kg/injection, schedule: Q01DX001 (ip), vehicle: saline): 102 % of control | T/C (dose: 400.0 mg/kg/injection, schedule: Q01DX001 (ip), vehicle: saline): 115 % of control

OC(CC(O)(C(F)(F)Cl)C(F)(F)Cl)c1cccs1 (centres undefined)
T/C (dose: 100.0 mg/kg/injection, schedule: Q04DX003 (ip), vehicle: saline): 93 % of control | T/C (dose: 200.0 mg/kg/injection, schedule: Q04DX003 (ip), vehicle: saline): 95 % of control | T/C (dose: 400.0 mg/kg/injection, schedule: Q04DX003 (ip), vehicle: saline): 105 % of control

Cc1cc([N+](=O)[O-])c2ccccc2[n+]1[O-]
T/C (dose: 25.0 mg/kg/injection, schedule: Q01DX009 (ip), vehicle: saline with Tween-80): 96 % of control

CCOC(=O)C1C2OC(=O)C(C(=O)C2CN(CCCl)CCCl)C1C1CC=C(CC2=CCC(C3C4C(=O)OC(C(CN(CCCl)CCCl)C4=O)C3C(=O)OCC)CC2)CC1 (centres undefined)
T/C (dose: 6.25 mg/kg/injection, schedule: Q01DX009 (ip), vehicle: Klucel (hydroxypropylcellulose) (HPC)): 108 % of control | T/C (dose: 12.5 mg/kg/injection, schedule: Q01DX009 (ip), vehicle: Klucel (hydroxypropylcellulose) (HPC)): 116 % of control | T/C (dose: 25.0 mg/kg/injection, schedule: Q01DX009 (ip), vehicle: Klucel (hydroxypropylcellulose) (HPC)): 158 % of control | T/C (dose: 33.25 mg/kg/injection, schedule: Q04DX003 (ip), vehicle: Klucel (hydroxypropylcellulose) (HPC)): 109 % of control | T/C (dose: 50.0 mg/kg/injection, schedule: Q01DX009 (ip), vehicle: Klucel (hydroxypropylcellulose) (HPC)): 114 % of control and 120 % of control | T/C (dose: 66.5 mg/kg/injection, schedule: Q04DX003 (ip), vehicle: Klucel (hydroxypropylcellulose) (HPC)): 109 % of control | T/C [4]: 114 % of control | T/C (dose: 133.0 mg/kg/injection, schedule: Q04DX003 (ip), vehicle: Klucel (hydroxypropylcellulose) (HPC)): 109 % of control | T/C [5]: 120 % of control | T/C (dose: 266.0 mg/kg/injection, schedule: Q04DX003 (ip), vehicle: Klucel (hydroxypropylcellulose) (HPC)): 117 % of control

OC(c1ccccc1)(c1ccccc1)C(O)(c1ccccc1)c1ccccc1
T/C (dose: 12.5 mg/kg/injection, schedule: Q04DX002 (ip), vehicle: Klucel (hydroxypropylcellulose) (HPC)): 94 % of control | T/C (dose: 25.0 mg/kg/injection, schedule: Q04DX002 (ip), vehicle: Klucel (hydroxypropylcellulose) (HPC)): 97 % of control and 122 % of control | T/C (dose: 50.0 mg/kg/injection, schedule: Q04DX002 (ip), vehicle: Klucel (hydroxypropylcellulose) (HPC)): 115 % of control and 91 % of control | T/C [1]: 97 % of control | T/C (dose: 100.0 mg/kg/injection, schedule: Q04DX002 (ip), vehicle: gum acacia): 92 % of control | T/C [7]: 102 % of control | T/C [4]: 96 % of control | T/C (dose: 200.0 mg/kg/injection, schedule: Q04DX002 (ip), vehicle: gum acacia): 89 % of control | T/C (dose: 200.0 mg/kg/injection, schedule: Q04DX002 (ip), vehicle: saline with Tween-80): 99 % of control | T/C [5]: 88 % of control | T/C (dose: 400.0 mg/kg/injection, schedule: Q04DX002 (ip), vehicle: gum acacia): 95 % of control | T/C [8]: 99 % of control | T/C [6]: 95 % of control

CNc1ccccc1C(=O)N/N=C\c1ccc(Cl)cc1Cl
T/C [1]: 105 % of control | T/C [2]: 94 % of control | T/C [3]: 97 % of control

CC1OC(n2cnc3c(N)nc(F)nc32)C(O)C1O (centres undefined)
T/C (dose: 37.5 mg/kg/injection, schedule: Q01DX001 (ip), vehicle: other): 112 % of control

CC(=O)Nc1ncccc1C
T/C (dose: 5.0 mg/kg/injection, schedule: Q01DX001 (ip), vehicle: saline): 94 % of control | T/C (dose: 10.0 mg/kg/injection, schedule: Q01DX001 (ip), vehicle: saline): 96 % of control | T/C (dose: 20.0 mg/kg/injection, schedule: Q01DX001 (ip), vehicle: saline): 101 % of control | T/C (dose: 40.0 mg/kg/injection, schedule: Q01DX001 (ip), vehicle: saline): 100 % of control

CC(C)OP(=O)(CP(=O)(OC(C)C)OC(C)C)OC(C)C
T/C (dose: 100.0 mg/kg/injection, schedule: Q01DX009 (ip), vehicle: saline): 95 % of control | T/C (dose: 200.0 mg/kg/injection, schedule: Q01DX009 (ip), vehicle: saline): 97 % of control
